From patent US20210024483A1, “HETEROCYLCOALKENYL DERIVATIVES USEFUL AS AGONISTS OF THE GPR120 AND / OR GPR40” (Janssen Pharmaceutica NV, priority 2018, published 2021) come the findings set out here.

The target in the test is T1, short form of the GPR120 receptor (Homo sapiens, UniProt Q5NUL3).
T1 construct: host or cells: PathHunter CHO-K1 GPR120S beta-Arrestin Cell Line
T1 sequence (Q5NUL3 1-361): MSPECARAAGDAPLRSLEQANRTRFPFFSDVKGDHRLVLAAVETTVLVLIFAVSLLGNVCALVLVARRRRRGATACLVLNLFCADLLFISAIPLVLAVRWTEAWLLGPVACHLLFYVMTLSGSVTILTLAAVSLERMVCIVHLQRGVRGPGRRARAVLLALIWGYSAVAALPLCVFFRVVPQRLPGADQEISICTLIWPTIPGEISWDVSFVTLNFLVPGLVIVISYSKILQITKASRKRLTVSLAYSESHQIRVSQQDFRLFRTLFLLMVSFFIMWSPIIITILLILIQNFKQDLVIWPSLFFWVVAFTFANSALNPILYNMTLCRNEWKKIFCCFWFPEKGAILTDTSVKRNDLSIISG
The test can be described thus: Human GPR120 DiscoveRx PathHunter Beta-Arrestin Assay, Procedure B. To be noted: PathHunter CHO-K1 GPR120S cells, 5000 cells/well. It counts as cell-based. The source says: Human GPR120 DiscoveRx PathHunter® Beta-Arrestin Assay
The binding of an agonist (medium/long chain fatty acids or small molecule agonists) to the G-protein-coupled receptor GPR120 activates phospholipase C, leading to release of intracellular Ca^+2 through the generation of inositol 1,4,5-trisphosphate (InsP3 or IP3). GPR120 activation can also trigger intracellular signaling via recruitment of Beta-Arrestin. In the present method, agonist-induced activation of the human GPR120 receptor is monitored through the use of PathHunter® CHO-K1 GPR120 Beta-Arrestin Cell Line engineered by DiscoveRx, as detailed below. The cell lines were designed to co-express both the ProLink/Enzyme Donor (PK)-tagged GPCR and the Enzyme […] (EA)-tagged Beta-Arrestin fusion proteins. Upon GPR120 receptor stimulation/activation, the EA-tagged Beta-Arrestin portion is translocated to the tagged receptor, where the two enzyme fragments are brought within close proximity. Under these conditions, these fragments can interact and form an active Beta-gal enzyme complex through Enzyme Fragment Complementation (EFC). This active Beta-gal complex can enzymatically hydrolyse the substrate to produce a detectable light signal; therefore, activation as a function of agonist concentration can be expressed as an EC50 value to determine relative compound activities. This in vitro assay therefore serves to assess compound agonist activity of the GPR120.
In Procedure β-arrestin B the cells used were PathHunter® CHO-K1 GPR120S β-Arrestin Cell Line, expressing the short form of the GPR120 receptor (Accession #[…]), with 5000 cells/well.
The selected CHO-K1 GPR120 β-Arrestin cells were cultured in Ham's F12 media supplemented with 10% fetal bovine serum (FBS), 1% Glutamine, 1× p/s, 800 μg/mL G418 and 300 μg/mL Hygromycin B (for selection). Cell stocks were maintained and grown in a sub-confluent state using standard cell culture procedures. The day before the experiment, the cells were harvested with non-enzymatic cell dissociation buffer and re-suspended in complete growth media at the desired concentration. A Corning 384-plate was then seeded with the proper number of cells in a volume of 25 μL, per well. The seeded plates were incubated overnight at 37° C.
On the day of the experiment, the Assay Buffer containing (a) HBSS with Ca^++ and Mg^++, (b) 20 mM HEPES, and (c) 0.1% BSA stabilizer (pH 7.4) was prepared. The growth medium was gently removed from the cell plates and 20 μL of Assay Buffer added to each well. The plate was then incubated at 37° C. for 60 min. Test compounds were serially diluted in Assay Buffer to desired concentrations (more particularly to one or more of the following μM concentrations: 25, 12.5, 6.25, 3.12, 1.56, 0.78, 0.39, 0.19, 0.10, 0.05, 0.02, 0.01). Five μL of compound dilution was then added to each well and the plate incubated at 37° C. for 90 min. The detection reagents were prepared according to the manufacture's instruction. Twelve μL of the detection reagents were added to each well and the plate incubated at room temperature for 60 min.
The plates were read on an EnVision instrument, using Protocol name: Luminescence, Plate type: 384 Costar, Measurement height: 3 mm, Measurement time: 1 s, Aperture: 384 Plate aperture. The % Activity relative to the positive control was calculated using the following equation:
The % Activity values were plotted versus the concentration of test compound and fitted to a sigmoidal dose-response curve with a Hill slope=1 (fixed value) using nonlinear regression with GraphPad Prism 5.0 to calculate the EC50 values. The Fitting Equation was: Y=Bottom+(Top−Bottom)/(1+10^((Log EC50−X)*HillSlope)), where X is the log of the concentration and Y is the response.

pEC50: −log10 of the molar value.

As to `Cc1c(CCC(=O)O)ccc(OCC2=C(c3ccc(Cl)cc3)COCC2)c1C` [ID No. 745, 3-[4-[[5-(4-chlorophenyl)-3,6-dihydro-2H-pyran-4-yl]methoxy]-2,3-dimethyl-phenyl]propanoic acid], the pEC50 – broadly, the negative decadic logarithm of the EC50, by convention in mol/L – was 6.61.
